Laboratory results reported in the supplement of paper PMC10307832.

Experiments:
Test in all cases: relative viability (nuclei count vs DMSO), 5 days (fraction); higher = more cells survive
Kobe2602 + Linsitinib = compound: C1=CC(=CC=C1NC(=S)NNC2=C(C=C(C=C2[N+](=O)[O-])C(F)(F)F)[N+](=O)[O-])F [Kobe2602] + C[C@]1(O)C[C@@H](c2nc(-c3ccc4ccc(-c5ccccc5)nc4c3)c3c(N)nccn32)C1 [Linsitinib] (partner 1 µM)
In short: (§1)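 Values are medians from duplicate plates. Each reflects relative viability, defined as the nuclei count of treated wells over that of vehicle wells. Lung cancer cell lines in 1536-well plates were pin-tool dosed one day after seeding with one drug alone or with a fixed anchor-drug dose plus five library-drug doses (not always all listed) in √10 steps, then fixed, stained and imaged at 4× after 5 days.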

[1] = compound: COc1cc2nccc(Oc3ccc(NC(=O)C4(C(=O)Nc5ccc(F)cc5)CC4)cc3)c2cc1OC [Cabozantinib] + Nc1ncn([C@H]2C[C@H](O)[C@@H](CO)O2)c(=O)n1 [Decitabine] (partner 2 µM)
In short: as §1

Cabozantinib + Foretinib = compound: COc1cc2nccc(Oc3ccc(NC(=O)C4(C(=O)Nc5ccc(F)cc5)CC4)cc3)c2cc1OC [Cabozantinib] + COc1cc2c(Oc3ccc(NC(=O)C4(C(=O)Nc5ccc(F)cc5)CC4)cc3F)ccnc2cc1OCCCN1CCOCC1 [Foretinib] (partner 0.25 µM)
In short: as §1

Zosuquidar + Alpelisib = compound: O[C@@H](COc1cccc2ncccc12)CN1CCN([C@@H]2c3ccccc3[C@@H]3[C@H](c4ccccc42)C3(F)F)CC1 [Zosuquidar] + Cc1nc(NC(=O)N2CCC[C@H]2C(N)=O)sc1-c1ccnc(C(C)(C)C(F)(F)F)c1 [Alpelisib] (partner 2 µM)
In short: as §1

Cell Line: NCI-H1755
- relative viability (Kobe2602 + Linsitinib; first compound 0.2 µM): 0.949
- relative viability (Kobe2602 + Linsitinib; first compound 0.6325 µM): 0.898
- relative viability (Kobe2602 + Linsitinib; first compound 2 µM): 0.986
- relative viability (Kobe2602 + Linsitinib; first compound 6.325 µM): 0.977
- relative viability (Kobe2602 + Linsitinib; first compound 20 µM): 0.982
- relative viability ([1]; first compound 0.02 µM): 0.729
- relative viability ([1]; first compound 0.06325 µM): 0.73
- relative viability ([1]; first compound 0.2 µM): 0.757
- relative viability ([1]; first compound 0.6325 µM): 0.717
- relative viability ([1]; first compound 2 µM): 0.742
- relative viability (Cabozantinib + Foretinib; first compound 0.02 µM): 0.911
- relative viability (Cabozantinib + Foretinib; first compound 0.06325 µM): 1.01
- relative viability (Cabozantinib + Foretinib; first compound 0.2 µM): 0.92
- relative viability (Cabozantinib + Foretinib; first compound 0.6325 µM): 0.917
- relative viability (Cabozantinib + Foretinib; first compound 2 µM): 0.856
- relative viability (Zosuquidar + Alpelisib; first compound 0.01 µM): 0.89
- relative viability (Zosuquidar + Alpelisib; first compound 0.03162 µM): 0.951
- relative viability (Zosuquidar + Alpelisib; first compound 0.1 µM): 0.888
- relative viability (Zosuquidar + Alpelisib; first compound 0.3162 µM): 0.94
- relative viability (Zosuquidar + Alpelisib; first compound 1 µM): 0.913

Cell Line: NCI-H650
- relative viability (Kobe2602 + Linsitinib; first compound 0.2 µM): 0.758
- relative viability (Kobe2602 + Linsitinib; first compound 0.6325 µM): 1.03
- relative viability (Kobe2602 + Linsitinib; first compound 2 µM): 0.912
- relative viability (Kobe2602 + Linsitinib; first compound 6.325 µM): 0.897
- relative viability (Kobe2602 + Linsitinib; first compound 20 µM): 0.954
- relative viability ([1]; first compound 0.02 µM): 0.315
- relative viability ([1]; first compound 0.06325 µM): 0.372
- relative viability ([1]; first compound 0.2 µM): 0.45
- relative viability ([1]; first compound 0.6325 µM): 0.338
- relative viability ([1]; first compound 2 µM): 0.304
- relative viability (Cabozantinib + Foretinib; first compound 0.06325 µM): 1.03
- relative viability (Cabozantinib + Foretinib; first compound 0.2 µM): 1.06
- relative viability (Cabozantinib + Foretinib; first compound 0.6325 µM): 0.999
- relative viability (Cabozantinib + Foretinib; first compound 2 µM): 0.984
- relative viability (Zosuquidar + Alpelisib; first compound 0.01 µM): 1.15
- relative viability (Zosuquidar + Alpelisib; first compound 0.03162 µM): 0.94
- relative viability (Zosuquidar + Alpelisib; first compound 0.3162 µM): 1.09
- relative viability (Zosuquidar + Alpelisib; first compound 1 µM): 1.28

Cell Line: NCI-H1651
- relative viability (Kobe2602 + Linsitinib; first compound 0.2 µM): 0.83
- relative viability (Kobe2602 + Linsitinib; first compound 0.6325 µM): 1.14
- relative viability (Kobe2602 + Linsitinib; first compound 2 µM): 1.07
- relative viability (Kobe2602 + Linsitinib; first compound 6.325 µM): 0.976
- relative viability (Kobe2602 + Linsitinib; first compound 20 µM): 0.906
- relative viability ([1]; first compound 0.02 µM): 0.465
- relative viability ([1]; first compound 0.06325 µM): 0.743
- relative viability ([1]; first compound 0.2 µM): 0.565
- relative viability ([1]; first compound 0.6325 µM): 0.616
- relative viability ([1]; first compound 2 µM): 0.599
- relative viability (Cabozantinib + Foretinib; first compound 0.02 µM): 1
- relative viability (Cabozantinib + Foretinib; first compound 0.06325 µM): 0.739
- relative viability (Cabozantinib + Foretinib; first compound 0.2 µM): 1.05
- relative viability (Cabozantinib + Foretinib; first compound 0.6325 µM): 0.875
- relative viability (Cabozantinib + Foretinib; first compound 2 µM): 0.783
- relative viability (Zosuquidar + Alpelisib; first compound 0.01 µM): 1.05
- relative viability (Zosuquidar + Alpelisib; first compound 0.03162 µM): 1.02
- relative viability (Zosuquidar + Alpelisib; first compound 0.1 µM): 0.856
- relative viability (Zosuquidar + Alpelisib; first compound 0.3162 µM): 0.915
- relative viability (Zosuquidar + Alpelisib; first compound 1 µM): 0.975

Cell Line: NCI-H1437
- relative viability (Kobe2602 + Linsitinib; first compound 0.2 µM): 0.974
- relative viability (Kobe2602 + Linsitinib; first compound 0.6325 µM): 0.995
- relative viability (Kobe2602 + Linsitinib; first compound 2 µM): 1.03
- relative viability (Kobe2602 + Linsitinib; first compound 6.325 µM): 0.998
- relative viability (Kobe2602 + Linsitinib; first compound 20 µM): 0.872
- relative viability ([1]; first compound 0.02 µM): 0.64
- relative viability ([1]; first compound 0.06325 µM): 0.567
- relative viability ([1]; first compound 0.2 µM): 0.58
- relative viability ([1]; first compound 0.6325 µM): 0.576
- relative viability ([1]; first compound 2 µM): 0.558
- relative viability (Cabozantinib + Foretinib; first compound 0.02 µM): 1.29
- relative viability (Cabozantinib + Foretinib; first compound 0.06325 µM): 1.37
- relative viability (Cabozantinib + Foretinib; first compound 0.2 µM): 1.29
- relative viability (Cabozantinib + Foretinib; first compound 0.6325 µM): 1.27
- relative viability (Cabozantinib + Foretinib; first compound 2 µM): 1.21
- relative viability (Zosuquidar + Alpelisib; first compound 0.01 µM): 0.966
- relative viability (Zosuquidar + Alpelisib; first compound 0.03162 µM): 0.961
- relative viability (Zosuquidar + Alpelisib; first compound 0.1 µM): 0.935
- relative viability (Zosuquidar + Alpelisib; first compound 0.3162 µM): 1.01
- relative viability (Zosuquidar + Alpelisib; first compound 1 µM): 0.994

Cell Line: NCI-H1975
- relative viability (Kobe2602 + Linsitinib; first compound 0.2 µM): 0.969
- relative viability (Kobe2602 + Linsitinib; first compound 0.6325 µM): 0.917
- relative viability (Kobe2602 + Linsitinib; first compound 2 µM): 0.978
- relative viability (Kobe2602 + Linsitinib; first compound 6.325 µM): 0.859
- relative viability (Kobe2602 + Linsitinib; first compound 20 µM): 0.818
- relative viability ([1]; first compound 0.02 µM): 0.406
- relative viability ([1]; first compound 0.06325 µM): 0.399
- relative viability ([1]; first compound 0.2 µM): 0.412
- relative viability ([1]; first compound 0.6325 µM): 0.418
- relative viability ([1]; first compound 2 µM): 0.327
- relative viability (Cabozantinib + Foretinib; first compound 0.02 µM): 1.04
- relative viability (Cabozantinib + Foretinib; first compound 0.06325 µM): 1.01
- relative viability (Cabozantinib + Foretinib; first compound 0.2 µM): 1.1
- relative viability (Cabozantinib + Foretinib; first compound 0.6325 µM): 0.89
- relative viability (Cabozantinib + Foretinib; first compound 2 µM): 0.849
- relative viability (Zosuquidar + Alpelisib; first compound 0.01 µM): 0.624
- relative viability (Zosuquidar + Alpelisib; first compound 0.03162 µM): 0.653
- relative viability (Zosuquidar + Alpelisib; first compound 0.1 µM): 0.679
- relative viability (Zosuquidar + Alpelisib; first compound 0.3162 µM): 0.675
- relative viability (Zosuquidar + Alpelisib; first compound 1 µM): 0.713

Cell Line: BEN
- relative viability (Kobe2602 + Linsitinib; first compound 0.2 µM): 0.988
- relative viability (Kobe2602 + Linsitinib; first compound 0.6325 µM): 1.06
- relative viability (Kobe2602 + Linsitinib; first compound 2 µM): 0.967
- relative viability (Kobe2602 + Linsitinib; first compound 6.325 µM): 0.858
- relative viability (Kobe2602 + Linsitinib; first compound 20 µM): 0.915
- relative viability ([1]; first compound 0.02 µM): 0.63
- relative viability ([1]; first compound 0.06325 µM): 0.815
- relative viability ([1]; first compound 0.2 µM): 0.7
- relative viability ([1]; first compound 0.6325 µM): 0.733
- relative viability ([1]; first compound 2 µM): 0.566
- relative viability (Cabozantinib + Foretinib; first compound 0.02 µM): 0.595
- relative viability (Cabozantinib + Foretinib; first compound 0.06325 µM): 0.79
- relative viability (Cabozantinib + Foretinib; first compound 0.2 µM): 0.708
- relative viability (Cabozantinib + Foretinib; first compound 0.6325 µM): 0.787
- relative viability (Cabozantinib + Foretinib; first compound 2 µM): 0.387
- relative viability (Zosuquidar + Alpelisib; first compound 0.01 µM): 1.07
- relative viability (Zosuquidar + Alpelisib; first compound 0.03162 µM): 0.968
- relative viability (Zosuquidar + Alpelisib; first compound 0.1 µM): 0.815
- relative viability (Zosuquidar + Alpelisib; first compound 0.3162 µM): 1
- relative viability (Zosuquidar + Alpelisib; first compound 1 µM): 1.21

Cell Line: NCI-H460
- relative viability (Kobe2602 + Linsitinib; first compound 0.2 µM): 0.826
- relative viability (Kobe2602 + Linsitinib; first compound 0.6325 µM): 0.768
- relative viability (Kobe2602 + Linsitinib; first compound 2 µM): 0.709
- relative viability (Kobe2602 + Linsitinib; first compound 6.325 µM): 0.894
- relative viability (Kobe2602 + Linsitinib; first compound 20 µM): 0.725
- relative viability ([1]; first compound 0.02 µM): 0.509
- relative viability ([1]; first compound 0.06325 µM): 0.477
- relative viability ([1]; first compound 0.2 µM): 0.724
- relative viability ([1]; first compound 0.6325 µM): 0.51
- relative viability ([1]; first compound 2 µM): 0.486
- relative viability (Cabozantinib + Foretinib; first compound 0.02 µM): 1.03
- relative viability (Cabozantinib + Foretinib; first compound 0.06325 µM): 1.04
- relative viability (Cabozantinib + Foretinib; first compound 0.2 µM): 0.93
- relative viability (Cabozantinib + Foretinib; first compound 0.6325 µM): 1
- relative viability (Cabozantinib + Foretinib; first compound 2 µM): 1.07
- relative viability (Zosuquidar + Alpelisib; first compound 0.01 µM): 0.398
- relative viability (Zosuquidar + Alpelisib; first compound 0.03162 µM): 0.526
- relative viability (Zosuquidar + Alpelisib; first compound 0.1 µM): 0.539
- relative viability (Zosuquidar + Alpelisib; first compound 0.3162 µM): 0.551
- relative viability (Zosuquidar + Alpelisib; first compound 1 µM): 0.529

Cell Line: NCI-H1944
- relative viability (Kobe2602 + Linsitinib; first compound 0.2 µM): 1.22
- relative viability (Kobe2602 + Linsitinib; first compound 0.6325 µM): 1.26
- relative viability (Kobe2602 + Linsitinib; first compound 2 µM): 1.28
- relative viability (Kobe2602 + Linsitinib; first compound 6.325 µM): 1.17
- relative viability (Kobe2602 + Linsitinib; first compound 20 µM): 1.29
- relative viability ([1]; first compound 0.02 µM): 0.477
- relative viability ([1]; first compound 0.06325 µM): 0.483
- relative viability ([1]; first compound 0.2 µM): 0.42
- relative viability ([1]; first compound 0.6325 µM): 0.481
- relative viability ([1]; first compound 2 µM): 0.466
- relative viability (Cabozantinib + Foretinib; first compound 0.02 µM): 1.04
- relative viability (Cabozantinib + Foretinib; first compound 0.06325 µM): 0.938
- relative viability (Cabozantinib + Foretinib; first compound 0.2 µM): 0.9
- relative viability (Cabozantinib + Foretinib; first compound 0.6325 µM): 0.895
- relative viability (Cabozantinib + Foretinib; first compound 2 µM): 0.867
- relative viability (Zosuquidar + Alpelisib; first compound 0.01 µM): 0.836
- relative viability (Zosuquidar + Alpelisib; first compound 0.03162 µM): 0.722
- relative viability (Zosuquidar + Alpelisib; first compound 0.1 µM): 0.717
- relative viability (Zosuquidar + Alpelisib; first compound 0.3162 µM): 0.837
- relative viability (Zosuquidar + Alpelisib; first compound 1 µM): 0.765
